Assay results from patent US9764029B2, “Tumor proliferation inhibitor containing ultrasound-sensitive substance and method for inhibiting tumor proliferation by using tumor proliferation inhibitor and low-intensity pulsed ultrasound waves” (Fukuoka University, priority 2010, dated 2017).

What was measured:
[1] = test system: human gastric cancer cell line MKN-74; assay: Ultrasonic treatment of SCID mice carrying subcutaneous MKN-74 cancer (Example 1); assay type: in vivo; conditions: DEG 5 μM + SONAZOID 16 μL in 300 μL saline, intratumoral; single treatment with low-intensity pulsed ultrasound 2 W/cm^2, 1 MHz, 50% duty cycle, 10 minutes; three weeks after treatment
Procedure: SCID mice as cancer-carrying animals were inoculated subcutaneously with human gastric cancer cell line MKN-74 which was in turn grown to a diameter of the cancer size of approximately 20 mm and then subjected to treatment by ultrasound waves. The ultrasonic treatment was carried out using the porphyrin derivative, [7,12-bis(1-(2-(2-hydroxyethoxy)ethoxy)ethyl)-3,8,13,17-tetramethylporphyrin-2,18-dipropionato]manganese (DEG), as the ultrasound-sensitive substance and an ultrasound contrast agent containing lipid stabilized perfluorobutane microbubbles in an aqueous solution (SONAZOID™) as the acoustic cavitation phenomenon-enhancing substance by irradiating the mice with low-intensity pulsed ultrasound waves of 2 W/cm^2 and 1 MHz under a condition of 50% duty cycle for 10 minutes. The ultrasonic treatment was performed by suspending 5 μM of the ultrasound sensitive substance and 16 μL of the acoustic cavitation phenomenon-enhancing substance in 300 μL of saline and irradiating the mice with the ultrasound waves immediately after intratumoral administration of the resulting suspension. The states of development of the cancer were observed immediately after ultrasonic treatment, one week and three weeks thereafter.

[2] = test system: human gastric cancer cell line MKN-74; assay: Inhibitory effect on cancer at a specific site (subcutaneous tumor) of mice with MKN-74 tumor (Example 2); assay type: in vivo; conditions: DEG 5 μM in combination with Szd 16 μL in 200 μL PBS, intratumoral; ultrasound 1 W/cm^2, 1 MHz, 50% duty cycle, 10 minutes, three times on alternate days
Procedure: Mice were inoculated subcutaneously with ca. 5×10^6 cells of human gastric cancer cell line MKN-74 and a PBS suspension (200 μL) composed of the ultrasound-sensitive substance (DEG; 5 μM) and the acoustic cavitation phenomenon-enhancing substance (Szd; 16 μL) was administered intratumorally, followed by irradiating the mice with ultrasound waves of 1 W/cm^2 and 1 MHZ under a condition of 50% duty cycle for 10 minutes using Sonitron 100. The ultrasound waves were irradiated three times on alternate days. The results of the cancer sizes are shown by arrow mark (↑) in FIG. 4.

Substance: 7,12-bis(1-(2-(2-hydroxyethoxy)ethoxy)ethyl)-3,8,13,17-tetra-methylporphyrin-2,18-dipropionato]manganese [DEG]
- state of development of the cancer (tumor size) [1]: dramatic regression of the cancer
- antitumor effect, one remaining case of three [2]: significant antitumor effect
- antitumor effect, two cases out of three [2]: remarkable effects
